How the values were obtained:
[1] = tested on: 1Q site of the respiratory chain; settings: cited from earlier work
[2] = tested on: acute organochlorine poisoning; assay: Treatment of a cat with acute organochlorine poisoning; type: in vivo; settings: one cat, unpublished experiment
From the text: Knowing that when ROS are overexpressed by mitochondria, this induces a simultaneous overproduction of cytosolic ROS, whose production source is NADPH oxidase (or NOX, usually NOX4 and NOX2), some authors conclude that NOX are the first responsible when in fact mitochondrial production is the culprit (Gosh R. et al., J. Clin. Diagn. Res., 2017, 11: BC09-BC12; Mangum L. C. et al., Chem. Res. Toxicol, 2015, 28: 570-584).

[3] = tested on: QT and QTc intervals; assay: Moxifloxacin-induced QT prolongation in dogs (single-dose cross-over, telemetry ECG); type: in vivo, male Beagle dogs
Experimental: Principle: This is a single-dose study in dogs to examine the protective effect of ATT on QT prolongation induced by the intravenous (IV) injection of a dose of moxifloxacin, which is considered the reference substance (positive control).
Methodology: This is a cross-over and single-dose study conducted on 4 groups of 4 male Beagle dogs receiving, depending on the group: • Group 1—control group: intraperitoneal injection [i.p.] of the ATT vehicle; • Group 2—ATT, 5 mg/kg, administered i.p.; • Group 3—moxifloxacin, 15 mg/kg, administered as a slow IV injection in 5% lactic acid at 0.5 mL/kg; and • Group 4—an ATT dose of 5 mg/kg is injected i.p. 30 minutes before a slow IV dose of moxifloxacin of 15 mg/kg (see above).
In this study, each dog is equipped with an implantable teletransmitter of the “DSI radio-telemetry transmitter” type allowing continuous ECG recording over 24 hours in 10-minute sequences, including the measurement of PQ, QRS, QT and QTc spaces (correction according to the Van de Water formula), heart rate as well as systolic and diastolic BP and mean BP. ECG analysis is performed using Notocord Systems® ECG51a software and BP analysis using APR30a software, also from Notocord Systems®.

[4] = tested on: QTcF interval; assay: TQT study of moxifloxacin-induced QT prolongation in healthy volunteers; type: in vivo, humans; settings: 75 mg ATT oral 60 minutes before 400 mg oral moxifloxacin
Experimental: Principle: Following the 2005 ICH E14 recommendation (FDA, 2005), a TQT study (“through QT study”) was conducted in healthy volunteers to evaluate the protective effect of ATT on QT prolongation induced by a single oral dose of 400 mg moxifloxacin.
Methodology: This was a single-dose, cross-over study conducted in healthy volunteers.
The volunteers, 16 men aged 18 to 40, were selected based on the following criteria: medical history, physical examination (including a BMI between 18 and 26 kg/m2), vital signs, clinical examinations, biological check-up and 12-lead ECG.
The selected volunteers were equipped with a Holter ECG for a 24-hour recording.
Four sequences were tested with a 7-day wash-out period between each: • 1st sequence—no treatment was given; • 2nd sequence—each volunteer received a 400 mg oral dose of moxifloxacin; • 3rd sequence—each volunteer took 75 mg of ATT by mouth (3 tablets of Sulfarlem® 25); and • 4th sequence—each volunteer received a 400 mg oral dose of moxifloxacin, 60 minutes after an oral dose of 75 mg ATT (3 tablets of Sulfarlem® 25). […]

[5] = tested on: tenocytes; settings: pre-incubation of tenocytes with ATT at 10 μM for 3 hours; oxidative stress induced by FQ (ciprofloxacin, ofloxacin, pefloxacin); cited from earlier work
[6] = tested on: human Jurkat T cells; settings: cited from earlier work
[7] = rats; cited from earlier work
[8] = 70 years marketed in France; cited from earlier work
[9] = marketed form; cited from earlier work
[10] = Solubility in water

## O=[N+]([O-])c1ccc(Oc2ccc(S(=O)(=O)NC3CCCCC3)cc2)cc1 [NC-POBS, N-cyclohexyl-4-(4-nitrophenoxy)benzenesulfonamide]
[1]
  specific inhibition of mitochondrial ROS production: specific inhibitor of mitochondrial ROS production

## COc1ccc(-c2cc(=S)ss2)cc1 [ATT, 5-(4-methoxyphenyl)-3H-1,2-dithiole-3-thione]
[2]
  outcome of treatment of acute organochlorine poisoning: successfully treated
[3]; ATT 5 mg/kg i.p. 30 minutes before moxifloxacin 15 mg/kg slow IV
  QT and QTc intervals: maintained in the normal range
[4]
  upper limit of the confidence interval of the effect of moxifloxacin on the QTcF interval: less than 10 msec
[5]
  cellular production of ROS: significantly reduces
[6]
  free radical scavenger and antioxidant activity: powerful free radical scavenger and antioxidant
[7]
  Vd: about 2 L/kg
[8]
  side effects relating to long-term use: no side effects have been reported

## COc1c(N2C[C@@H]3CCCN[C@@H]3C2)c(F)cc2c(=O)c(C(=O)O)cn(C3CC3)c12 [moxifloxacin]
[3]; moxifloxacin 15 mg/kg slow IV alone
  QT and QTc intervals: significantly increased

## Oc1ccc(-c2cc(=S)ss2)cc1 [ATX, 4-OH-anethole trithione]
[9]
  circulating product found after oral administration of ATT: most of the circulating product found is ATX
[10]
  solubility in water: insoluble in water
